Test results reported in ChEMBL document CHEMBL1139889, “Identification and characterization of a library of microheterogeneous cyclohexadepsipeptides from the fungus Isaria” (J Nat Prod, 2007).
Peptide text beside a SMILES is read from it.

What was measured:
[1] = Toxicity against human erythrocytes assessed as lysis at 600 uM; format: cell-based; conditions: erythrocyte
[2] = Toxicity against human erythrocytes assessed as lysis at 300 uM; format: cell-based; conditions: erythrocyte
Plasmodium falciparum = test: Growth inhibition of Plasmodium falciparum 3D7 in erythrocytes by [3H]hypoxanthine uptake; format: functional, organism-based

| Compound | Activity [1] | Activity [2] | IC50 (Plasmodium falciparum) [µM] |
| --- | --- | --- | --- |
| CCCCCCC1CC(=O)NCC(=O)N[C@@H](C(C)C)C(=O)N[C@H](CC(C)C)C(=O)N[C@@H](C)C(=O)N[C@@H](C(C)C)C(=O)O1 (stereo partly specified) [ISARIIN B] | Non-toxic | Non-toxic | 118 |
| CC(C)CC1OC(=O)CCNC(=O)[C@H](Cc2ccccc2)N(C)C(=O)[C@H](C(C)C)N(C)C(=O)[C@H](Cc2ccccc2)NC(=O)[C@@H]2CCCN2C1=O (stereo partly specified) [ISARIDINE A] (HELM PEPTIDE1{F.[meV].[meF].[bAla].[CC(C)CC(O[*:1])C(=O)[*:2]].P}$PEPTIDE1,PEPTIDE1,1:R1-6:R2$$$V2.0) | Non-toxic | Non-toxic | 230 |
